Data: the kinase profiling compilation of Christmann-Franck et al. (2016)

Assays:
Assay in all cases: KINOMEscan competition binding
Conditions in all cases: compound 10.0 µM
[1] = tested on: ABL1 (human), P00519 [E255K]
[2] = tested on: ABL1 (human), P00519 [F317L]
[3] = tested on: ABL1 (human), P00519 [H396P]
ACVRL1 (human) = ACVRL1 (human) (UniProt P37023)
ALK (human) = ALK (human) (UniProt Q9UM73)
AURKA (human) = AURKA (human) (UniProt O14965)
AURKC (human) = AURKC (human) (UniProt Q9UQB9)
BLK (human) = BLK (human) (UniProt P51451)
BMPR1A (human) = BMPR1A (human) (UniProt P36894)
CAMK1D (human) = CAMK1D (human) (UniProt Q8IU85)
CSNK1D (human) = CSNK1D (human) (UniProt P48730)
Sequence of CSNK1D (human) (P48730 whole entry, looked up): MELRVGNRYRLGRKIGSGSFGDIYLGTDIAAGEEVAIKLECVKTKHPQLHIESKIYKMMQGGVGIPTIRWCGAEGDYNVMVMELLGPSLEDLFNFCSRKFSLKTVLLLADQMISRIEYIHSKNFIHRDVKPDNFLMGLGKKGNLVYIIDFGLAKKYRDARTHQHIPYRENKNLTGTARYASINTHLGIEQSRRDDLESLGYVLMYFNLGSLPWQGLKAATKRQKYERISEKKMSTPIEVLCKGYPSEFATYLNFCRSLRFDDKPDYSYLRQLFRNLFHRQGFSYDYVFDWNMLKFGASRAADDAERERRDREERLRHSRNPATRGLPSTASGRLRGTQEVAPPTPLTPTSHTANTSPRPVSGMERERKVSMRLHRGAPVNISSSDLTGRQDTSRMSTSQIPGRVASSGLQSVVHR

CSNK1G2 (human) = CSNK1G2 (human) (UniProt P78368)
CSNK1G3 (human) = CSNK1G3 (human) (UniProt Q9Y6M4)
CSNK2A2 (human) = CSNK2A2 (human) (UniProt P19784)
Sequence of CSNK2A2 (human) (P19784 whole entry, looked up): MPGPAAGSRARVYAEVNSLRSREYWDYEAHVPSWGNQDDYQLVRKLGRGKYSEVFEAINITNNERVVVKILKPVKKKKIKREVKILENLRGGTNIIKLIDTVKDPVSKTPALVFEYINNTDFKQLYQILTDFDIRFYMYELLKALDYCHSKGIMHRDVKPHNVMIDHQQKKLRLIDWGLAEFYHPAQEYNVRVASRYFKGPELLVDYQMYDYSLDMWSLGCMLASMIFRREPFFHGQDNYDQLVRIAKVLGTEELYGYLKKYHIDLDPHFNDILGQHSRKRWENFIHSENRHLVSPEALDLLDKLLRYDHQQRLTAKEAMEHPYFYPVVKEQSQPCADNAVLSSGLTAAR

DCLK3 (human) = DCLK3 (human) (UniProt Q9C098)
EPHA6 (human) = EPHA6 (human) (UniProt Q9UF33)
FGR (human) = FGR (human) (UniProt P09769)
FRK (human) = FRK (human) (UniProt P42685)
Sequence of FRK (human) (P42685 whole entry, looked up): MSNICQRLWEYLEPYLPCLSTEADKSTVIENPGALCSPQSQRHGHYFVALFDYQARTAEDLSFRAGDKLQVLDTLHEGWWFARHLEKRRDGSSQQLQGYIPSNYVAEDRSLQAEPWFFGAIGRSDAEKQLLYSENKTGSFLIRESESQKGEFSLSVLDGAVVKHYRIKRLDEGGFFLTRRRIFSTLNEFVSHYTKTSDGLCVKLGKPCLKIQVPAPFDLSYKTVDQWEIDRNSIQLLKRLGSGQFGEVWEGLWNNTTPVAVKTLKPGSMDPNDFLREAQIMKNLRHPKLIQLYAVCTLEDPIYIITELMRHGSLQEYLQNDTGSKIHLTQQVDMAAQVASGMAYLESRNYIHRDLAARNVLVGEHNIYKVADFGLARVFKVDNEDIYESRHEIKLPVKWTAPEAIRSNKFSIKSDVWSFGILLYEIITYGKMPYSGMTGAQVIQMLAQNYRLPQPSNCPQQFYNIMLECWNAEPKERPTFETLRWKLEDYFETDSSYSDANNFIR

INSRR (human) = INSRR (human) (UniProt P14616)
IRAK3 (human) = IRAK3 (human) (UniProt Q9Y616)
LTK (human) = LTK (human) (UniProt P29376)
MAP3K15 (human) = MAP3K15 (human) (UniProt Q6ZN16)
MAPK11 (human) = MAPK11 (human) (UniProt Q15759)
MAPK12 (human) = MAPK12 (human) (UniProt P53778)
MAPK7 (human) = MAPK7 (human) (UniProt Q13164)
MAPKAPK2 (human) = MAPKAPK2 (human) (UniProt P49137)
Sequence of MAPKAPK2 (human) (P49137 whole entry, looked up): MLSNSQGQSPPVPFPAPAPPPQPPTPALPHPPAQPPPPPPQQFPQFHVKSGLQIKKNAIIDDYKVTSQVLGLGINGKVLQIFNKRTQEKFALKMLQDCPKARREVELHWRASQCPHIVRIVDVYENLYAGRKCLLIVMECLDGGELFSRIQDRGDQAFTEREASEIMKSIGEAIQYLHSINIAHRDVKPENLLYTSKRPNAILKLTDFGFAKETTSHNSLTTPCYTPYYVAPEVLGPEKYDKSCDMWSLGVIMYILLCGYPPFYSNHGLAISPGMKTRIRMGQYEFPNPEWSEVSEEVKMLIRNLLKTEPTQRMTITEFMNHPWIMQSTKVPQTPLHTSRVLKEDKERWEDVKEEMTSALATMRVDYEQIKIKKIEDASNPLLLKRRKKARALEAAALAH

MAPKAPK5 (human) = MAPKAPK5 (human) (UniProt Q8IW41)
[4] = tested on: MET (human), P08581 [M1250T]
MYLK (human) = MYLK (human) (UniProt Q15746)
NEK5 (human) = NEK5 (human) (UniProt Q6P3R8)
PHKG1 (human) = PHKG1 (human) (UniProt Q16816)
Sequence of PHKG1 (human) (Q16816 whole entry, looked up): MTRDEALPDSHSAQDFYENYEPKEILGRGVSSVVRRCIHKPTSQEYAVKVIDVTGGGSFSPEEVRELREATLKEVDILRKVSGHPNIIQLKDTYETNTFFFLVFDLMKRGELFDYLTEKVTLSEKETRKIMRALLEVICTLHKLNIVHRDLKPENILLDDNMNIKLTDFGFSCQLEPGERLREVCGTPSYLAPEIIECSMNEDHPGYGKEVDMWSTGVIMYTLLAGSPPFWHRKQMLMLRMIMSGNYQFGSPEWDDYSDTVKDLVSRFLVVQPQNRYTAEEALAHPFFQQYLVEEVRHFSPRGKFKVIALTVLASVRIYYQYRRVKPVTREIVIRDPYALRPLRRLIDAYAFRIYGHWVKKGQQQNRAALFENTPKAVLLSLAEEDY

[5] = tested on: PIK3CA (human), P42336 [Q546K]
PIM3 (human) = PIM3 (human) (UniProt Q86V86)
PKN1 (human) = PKN1 (human) (UniProt Q16512)
Sequence of PKN1 (human) (Q16512 whole entry, looked up): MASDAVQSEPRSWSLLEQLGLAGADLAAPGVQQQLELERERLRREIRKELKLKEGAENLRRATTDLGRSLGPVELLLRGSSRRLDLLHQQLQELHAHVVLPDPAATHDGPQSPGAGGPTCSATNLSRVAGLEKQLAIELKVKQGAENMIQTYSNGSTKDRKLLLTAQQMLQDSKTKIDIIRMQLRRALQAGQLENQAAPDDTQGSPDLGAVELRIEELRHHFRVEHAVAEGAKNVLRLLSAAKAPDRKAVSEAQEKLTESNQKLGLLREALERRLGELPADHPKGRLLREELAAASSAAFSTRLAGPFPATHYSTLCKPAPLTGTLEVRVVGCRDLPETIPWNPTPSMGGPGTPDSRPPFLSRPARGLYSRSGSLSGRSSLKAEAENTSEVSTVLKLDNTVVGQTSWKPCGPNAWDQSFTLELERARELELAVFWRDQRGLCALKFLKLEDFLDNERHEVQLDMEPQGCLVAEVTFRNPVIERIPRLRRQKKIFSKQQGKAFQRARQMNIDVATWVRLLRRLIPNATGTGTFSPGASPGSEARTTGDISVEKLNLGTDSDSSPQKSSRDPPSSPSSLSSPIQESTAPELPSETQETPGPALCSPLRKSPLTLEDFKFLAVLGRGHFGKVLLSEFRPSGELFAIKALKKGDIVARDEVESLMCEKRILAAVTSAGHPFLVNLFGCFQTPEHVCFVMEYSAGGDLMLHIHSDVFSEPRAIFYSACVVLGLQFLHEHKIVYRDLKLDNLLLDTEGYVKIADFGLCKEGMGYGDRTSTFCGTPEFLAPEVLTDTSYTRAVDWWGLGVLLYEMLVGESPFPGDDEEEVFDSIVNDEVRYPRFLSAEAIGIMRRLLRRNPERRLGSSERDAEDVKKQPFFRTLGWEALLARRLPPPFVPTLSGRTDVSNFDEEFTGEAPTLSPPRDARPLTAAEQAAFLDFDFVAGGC

PLK2 (human) = PLK2 (human) (UniProt Q9NYY3)
PRKACB (human) = PRKACB (human) (UniProt P22694)
PRKD1 (human) = PRKD1 (human) (UniProt Q15139)
RAF1 (human) = RAF1 (human) (UniProt P04049)
ROS1 (human) = ROS1 (human) (UniProt P08922)
TSSK1B (human) = TSSK1B (human) (UniProt Q9BXA7)
[6] = target: TYK2 JH1 catalytic (human) (UniProt P29597)

Sequence of ALK (human) (Q9UM73 whole entry, looked up): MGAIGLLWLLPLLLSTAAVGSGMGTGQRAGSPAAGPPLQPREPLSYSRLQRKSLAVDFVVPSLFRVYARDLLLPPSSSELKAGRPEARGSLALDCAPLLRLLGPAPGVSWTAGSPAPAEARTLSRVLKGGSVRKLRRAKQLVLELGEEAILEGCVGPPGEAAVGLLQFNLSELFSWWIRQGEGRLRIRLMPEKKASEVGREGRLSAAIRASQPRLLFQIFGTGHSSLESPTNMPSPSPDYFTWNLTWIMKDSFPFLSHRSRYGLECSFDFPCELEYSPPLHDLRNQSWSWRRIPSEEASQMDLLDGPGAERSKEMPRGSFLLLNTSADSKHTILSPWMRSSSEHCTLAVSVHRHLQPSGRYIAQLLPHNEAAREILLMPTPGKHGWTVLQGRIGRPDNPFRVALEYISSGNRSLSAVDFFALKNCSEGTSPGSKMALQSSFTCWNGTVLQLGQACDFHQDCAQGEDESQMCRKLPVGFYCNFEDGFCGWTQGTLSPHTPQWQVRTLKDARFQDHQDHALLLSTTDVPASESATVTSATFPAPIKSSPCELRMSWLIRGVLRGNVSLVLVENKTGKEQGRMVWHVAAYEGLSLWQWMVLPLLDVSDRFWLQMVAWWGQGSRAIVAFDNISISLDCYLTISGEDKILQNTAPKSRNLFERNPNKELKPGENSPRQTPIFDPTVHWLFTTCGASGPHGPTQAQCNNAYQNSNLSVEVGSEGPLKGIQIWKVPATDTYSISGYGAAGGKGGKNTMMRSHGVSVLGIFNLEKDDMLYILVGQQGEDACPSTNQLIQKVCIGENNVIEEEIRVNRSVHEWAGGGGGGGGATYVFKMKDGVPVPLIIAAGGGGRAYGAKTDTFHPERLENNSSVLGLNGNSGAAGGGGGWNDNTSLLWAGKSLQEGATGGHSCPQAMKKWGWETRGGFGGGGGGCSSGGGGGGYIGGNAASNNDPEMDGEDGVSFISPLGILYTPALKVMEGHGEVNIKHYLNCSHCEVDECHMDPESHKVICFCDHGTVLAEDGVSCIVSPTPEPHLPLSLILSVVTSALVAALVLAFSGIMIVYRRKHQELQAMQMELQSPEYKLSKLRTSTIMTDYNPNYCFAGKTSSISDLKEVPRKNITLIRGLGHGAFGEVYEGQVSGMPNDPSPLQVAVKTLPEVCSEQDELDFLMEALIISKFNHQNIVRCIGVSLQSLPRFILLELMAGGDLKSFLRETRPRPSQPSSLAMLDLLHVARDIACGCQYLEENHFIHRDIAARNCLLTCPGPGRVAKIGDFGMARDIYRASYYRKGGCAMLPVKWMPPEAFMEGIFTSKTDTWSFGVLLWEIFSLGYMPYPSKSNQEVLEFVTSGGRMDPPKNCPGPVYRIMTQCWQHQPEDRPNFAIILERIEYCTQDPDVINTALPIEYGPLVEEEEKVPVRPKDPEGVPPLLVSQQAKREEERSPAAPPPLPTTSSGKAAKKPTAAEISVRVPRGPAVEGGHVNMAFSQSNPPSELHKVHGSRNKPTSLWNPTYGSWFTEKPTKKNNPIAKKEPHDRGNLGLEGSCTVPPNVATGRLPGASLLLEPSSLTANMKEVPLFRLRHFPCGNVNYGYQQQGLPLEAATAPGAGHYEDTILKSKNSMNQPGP

O=C1Nc2cc(Br)ccc2/C1=C1/Nc2ccccc2/C1=N\O
kinase still bound, per cent of control [1]: 11%
kinase still bound, per cent of control [2]: 5.2%
kinase still bound, per cent of control [3]: 4.5%
kinase still bound, per cent of control (ACVRL1 (human)): 100%
kinase still bound, per cent of control (ALK (human)): 44%
kinase still bound, per cent of control (AURKA (human)): 20%
kinase still bound, per cent of control (AURKC (human)): 0.75%
kinase still bound, per cent of control (BLK (human)): 0.05%
kinase still bound, per cent of control (BMPR1A (human)): 66%
kinase still bound, per cent of control (CAMK1D (human)): 45%
kinase still bound, per cent of control (CSNK1D (human)): 21%
kinase still bound, per cent of control (CSNK1G2 (human)): 78%
kinase still bound, per cent of control (CSNK1G3 (human)): 81%
kinase still bound, per cent of control (CSNK2A2 (human)): 8%
kinase still bound, per cent of control (DCLK3 (human)): 8%
kinase still bound, per cent of control (EPHA6 (human)): 34%
kinase still bound, per cent of control (FGR (human)): 1.4%
kinase still bound, per cent of control (FRK (human)): 2.6%
kinase still bound, per cent of control (INSRR (human)): 47%
kinase still bound, per cent of control (IRAK3 (human)): 26%
kinase still bound, per cent of control (LTK (human)): 100%
kinase still bound, per cent of control (MAP3K15 (human)): 43%
kinase still bound, per cent of control (MAPK11 (human)): 100%
kinase still bound, per cent of control (MAPK12 (human)): 55%
kinase still bound, per cent of control (MAPK7 (human)): 100%
kinase still bound, per cent of control (MAPKAPK2 (human)): 100%
kinase still bound, per cent of control (MAPKAPK5 (human)): 100%
kinase still bound, per cent of control [4]: 87%
kinase still bound, per cent of control (MYLK (human)): 6.5%
kinase still bound, per cent of control (NEK5 (human)): 80%
kinase still bound, per cent of control (PHKG1 (human)): 15%
kinase still bound, per cent of control [5]: 100%
kinase still bound, per cent of control (PIM3 (human)): 30%
kinase still bound, per cent of control (PKN1 (human)): 79%
kinase still bound, per cent of control (PLK2 (human)): 87%
kinase still bound, per cent of control (PRKACB (human)): 100%
kinase still bound, per cent of control (PRKD1 (human)): 100%
kinase still bound, per cent of control (RAF1 (human)): 90%
kinase still bound, per cent of control (ROS1 (human)): 100%
kinase still bound, per cent of control (TSSK1B (human)): 100%
kinase still bound, per cent of control [6]: 3%
